Results published in patent publication US5438052A, “Cephalosporin derivatives” (Hoffmann-La Roche Inc., priority 1991, dated 1995).
≈ marks a conversion by molar mass, not a printed value. Structures can show the parent of a compound that is named as a salt. Where two headings read alike, the source gives them in different places.

Tests used:
[1] = test system: Pseudomonas aeruginosa BA; assay: Experimental systemic septicaemia in the mouse; format: in vivo; conditions: sc, 96 h
Summary of the method: (§1)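 Albino mice (16-20 g) infected i.p. with overnight culture at about 5-100× the 48 h LD50; groups of 5. Compounds given s.c. in 2% Tween 80 at 1 and 3 h post-infection (P. aeruginosa also at 5 h). ED50 (mg/kg s.c.) by Probit from 4-day survival.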

[2] = test system: S. aureus Schoch; assay: Experimental systemic septicaemia in the mouse; format: in vivo; conditions: Staphylococcus aureus, sc, 96 h
Summary of the method: as §1

[3] = test system: E. coli 25922; assay: Experimental systemic septicaemia in the mouse; format: in vivo; conditions: 96 h
Summary of the method: as §1

[4] = test system: P. aeruginosa 27853; assay: Minimum inhibitory concentration in vitro, agar dilution method; format: cell-based; conditions: Pseudomonas aeruginosa
Excerpt: (§2) 1. Minimum Inhibitory Concentration in vitro
(§3) The activities ascertained, minimum inhibitory concentration (MIC) in μg/ml, are compiled in Table 1 hereinafter: […]

[5] = test system: K. pneumoniae 418; assay: as above; format: cell-based; conditions: Klebsiella pneumoniae
Excerpt: as §2, §3

[6] = test system: P. aeruginosa BA; assay: as above; format: cell-based; conditions: Pseudomonas aeruginosa
Excerpt: as §2, §3

[7] = test system: P. mirabilis 2117; assay: as above; format: cell-based; conditions: Proteus mirabilis
Excerpt: as §2, §3

[8] = test system: C. freundii 902; assay: as above; format: cell-based; conditions: Citrobacter freundii
Excerpt: as §2, §3

[9] = test system: E. cloacae 908SSi; assay: as above; format: cell-based; conditions: Enterobacter cloacae
Excerpt: as §2, §3

[10] = test system: P. aeruginosa 799/WT; assay: as above; format: cell-based; conditions: Pseudomonas aeruginosa
Excerpt: as §2, §3

[11] = test system: P. aeruginosa MK1184; assay: as above; format: cell-based; conditions: Pseudomonas aeruginosa
Excerpt: as §2, §3

[12] = test system: S. aureus 6538; assay: as above; format: cell-based; conditions: Staphylococcus aureus
Excerpt: as §2, §3

[13] = test system: S. marcescens 69438; assay: as above; format: cell-based; conditions: Serratia marcescens
Excerpt: as §2, §3

[14] = test system: E. cloacae 908R; assay: as above; format: cell-based; conditions: Enterobacter cloacae
Excerpt: as §2, §3

[15] = test system: P. aeruginosa 799/61; assay: as above; format: cell-based; conditions: Pseudomonas aeruginosa
Excerpt: as §2, §3

[16] = test system: S. pyogenes 15; assay: as above; format: cell-based; conditions: Streptococcus pyogenes
Excerpt: as §2, §3

[17] = test system: E. coli 25922; assay: as above; format: cell-based; conditions: Escherichia coli
Excerpt: as §2, §3

[18] = test system: P. vulgaris 1028; assay: as above; format: cell-based; conditions: Proteus vulgaris
Excerpt: as §2, §3

[19] = test system: S. pneumoniae BA; assay: as above; format: cell-based; conditions: Streptococcus pneumoniae; S. pneumoniae BA, agar dilution; read-out: MIC
Excerpt: as §2, §3

[20] = test system: K. oxytoca 1082; assay: as above; format: cell-based; conditions: Klebsiella oxytoca
Excerpt: as §2, §3

[21] = test system: E. cloacae P99; assay: as above; format: cell-based; conditions: Enterobacter cloacae
Excerpt: as §2, §3

[22] = test system: E. aerogenes CF153; assay: as above; format: cell-based; conditions: Klebsiella aerogenes; E. aerogenes CF153, agar dilution; read-out: MIC
Excerpt: as §2, §3

[23] = P. aeruginosa BA, albino mice, s.c. 1, 3 and 5 hours after infection, survival after 4 days, read-out: ED50
[24] = S. aureus Schoch, albino mice, s.c. 1 and 3 hours after infection, survival after 4 days, read-out: ED50
[25] = Escherichia coli, sc, E. coli 25922, albino mice, s.c. 1 and 3 hours after infection, survival after 4 days, read-out: ED50
[26] = P. aeruginosa 27853, agar dilution, read-out: MIC
[27] = K. pneumoniae 418, agar dilution, read-out: MIC
[28] = P. aeruginosa BA, agar dilution, read-out: MIC
[29] = P. mirabilis 2117, agar dilution, read-out: MIC
[30] = C. freundii 902, agar dilution, read-out: MIC
[31] = E. cloacae 908SSi, agar dilution, read-out: MIC
[32] = P. aeruginosa 799/WT, agar dilution, read-out: MIC
[33] = P. aeruginosa MK1184, agar dilution, read-out: MIC
[34] = S. aureus 6538, agar dilution, read-out: MIC
[35] = S. marcescens 69438, agar dilution, read-out: MIC
[36] = E. cloacae 908R, agar dilution, read-out: MIC
[37] = P. aeruginosa 799/61, agar dilution, read-out: MIC
[38] = S. pyogenes 15, agar dilution, read-out: MIC
[39] = E. coli 25922, agar dilution, read-out: MIC
[40] = P. vulgaris 1028, agar dilution, read-out: MIC
[41] = K. oxytoca 1082, agar dilution, read-out: MIC

| SMILES | ED50 [1, 23] | ED50 [2, 24] | ED50 [3, 25] | MIC [4, 26] | MIC [5, 27] | MIC [6, 28] | MIC [7, 29] | MIC [8, 30] | MIC [9, 31] | MIC [10, 32] | MIC [11, 33] | MIC [12, 34] | MIC [13, 35] | MIC [14, 36] | MIC [15, 37] | MIC [16, 38] | MIC [17, 39] | MIC [18, 40] | MIC [20, 41] | MIC [21] | also measured |
| --- | --- | --- | --- | --- | --- | --- | --- | --- | --- | --- | --- | --- | --- | --- | --- | --- | --- | --- | --- | --- | --- |
| Cc1cc(SCC2=C(C(=O)O)N3C(=O)[C@@H](NC(=O)/C(=N\OC(C)(C)C(=O)NNC(=O)c4ccc(O)c(O)c4)c4csc(N)n4)[C@H]3SC2)n2nc(CS(=O)(=O)c3ccc(O)c(O)c3)nc2n1 [Example 44] | < 0.01 mg/kg | > 12 mg/kg | < 0.05 mg/kg | 0.5 µg/mL (≈ 0.515 µM) | < 0.1 µg/mL | < 0.1 µg/mL | 0.25 µg/mL (≈ 0.258 µM) | 0.25 µg/mL (≈ 0.258 µM) | 8 µg/mL (≈ 8.25 µM) | 0.12 µg/mL (≈ 0.124 µM) | 0.12 µg/mL (≈ 0.124 µM) | 32 µg/mL (≈ 33 µM) | 0.25 µg/mL (≈ 0.258 µM) | 1 µg/mL (≈ 1.03 µM) | < 0.1 µg/mL | 8 µg/mL (≈ 8.25 µM) | < 0.1 µg/mL | 0.25 µg/mL (≈ 0.258 µM) | < 0.1 µg/mL |  | MIC [19]: 1 µg/mL (≈ 1.03 µM) |
| Cc1cc(SCC2=C(C(=O)O)N3C(=O)[C@@H](NC(=O)/C(=N\OCc4ccc(O)c(O)c4F)c4csc(N)n4)[C@H]3SC2)n2nc(CNS(=O)(=O)c3ccc(O)c(O)c3)nc2n1 [Example 5, 7-[(Z)-2-(2-amino-4-thiazolyl)-2-[[(2-fluoro-3,4-dihydroxybenzyl)oxy]imino]acetamido]-3-[[[2-[(3,4-dihydroxybenzenesulphonamido)methyl]-5-methyl-s-triazolo[1,5-a]pyrimidin-7-yl]thio]methyl]-8-oxo-5-thia-1-azabicyclo[4.2.0]oct-2-ene-2-carboxylic acid sodium salt (1:1)] | 0.034 mg/kg | 3.1 mg/kg | < 0.1 mg/kg | 0.12 µg/mL | < 0.1 µg/mL | 0.12 µg/mL | 0.25 µg/mL | < 0.1 µg/mL | 1 µg/mL | < 0.1 µg/mL | < 0.1 µg/mL | 4 µg/mL | < 0.1 µg/mL | 0.25 µg/mL | < 0.1 µg/mL | 0.5 µg/mL | < 0.1 µg/mL | 0.5 µg/mL | 0.25 µg/mL | 4 µg/mL |  |
| Cc1cc(SCC2=C(C(=O)[O-])N3C(=O)[C@@H](NC(=O)/C(=N\OCc4ccc(O)c(O)c4)c4csc(N)n4)[C@H]3SC2)n2nc(COC(=O)c3ccc(O)c(O)c3)nc2n1.[Na+] [Example 8, (6R,7R)-7-[(Z)-2-(2-amino-4-thiazolyl)-2-[[(3,4-dihydroxybenzyl)oxy]imino]acetamido]-3-[[[2-[[(3,4-dihydroxybenzoyl)oxy]methyl]-5-methyl-s-triazolo[1,5-a]pyrimidin-7-yl]thio]methyl]-8-oxo-5-thia-1-azabicyclo[4.2.0]oct-2-ene-2-carboxylic acid sodium salt (1:1)] |  |  |  |  |  |  |  |  |  |  |  |  |  |  |  |  |  |  |  | 8 µg/mL | ED50 [1]: 0.45 mg/kg; ED50 [2]: 2 mg/kg; ED50 ([3]; Escherichia coli, 25922, sc): < 0.1 mg/kg; MIC [4]; 27853: 0.12 µg/mL; MIC [5]; 418: < 0.1 µg/mL; MIC [6]: < 0.1 µg/mL; MIC [7]; 2117: < 0.1 µg/mL; MIC [8]; 902: < 0.1 µg/mL; MIC ([9]; 908SSI): 2 µg/mL; MIC ([10]; 799/WT): < 0.1 µg/mL; MIC ([11]; MK1184): < 0.1 µg/mL; MIC [12]; 6538: 4 µg/mL; MIC [13]; 69438: 0.12 µg/mL; MIC ([14]; 908R): 0.25 µg/mL; MIC ([15]; 799/61): < 0.1 µg/mL; MIC [16]; 15: 1 µg/mL; MIC [17]; 25922: < 0.1 µg/mL; MIC [18]; 1028: < 0.1 µg/mL; MIC [20]; 1082: < 0.1 µg/mL |
| Nc1nc(/C(=N/OCc2ccc(O)c(O)c2F)C(=O)N[C@@H]2C(=O)N3C(C(=O)O)=C(CSc4nc(-c5ccccc5)ncc4-c4ccc(O)c(O)c4)CS[C@H]23)cs1 [Example 15] | > 2 mg/kg |  | 0.9 mg/kg | 1 µg/mL (≈ 1.22 µM) | < 0.1 µg/mL | 0.5 µg/mL (≈ 0.611 µM) | 0.12 µg/mL (≈ 0.147 µM) | 0.25 µg/mL (≈ 0.306 µM) | 16 µg/mL (≈ 19.6 µM) | 0.5 µg/mL (≈ 0.611 µM) | 32 µg/mL (≈ 39.1 µM) | 32 µg/mL (≈ 39.1 µM) | 1 µg/mL (≈ 1.22 µM) | 2 µg/mL (≈ 2.45 µM) | < 0.1 µg/mL | 0.12 µg/mL (≈ 0.147 µM) | < 0.1 µg/mL | 0.5 µg/mL (≈ 0.611 µM) | 0.5 µg/mL (≈ 0.611 µM) | 16 µg/mL (≈ 19.6 µM) | MIC [22]: 0.12 µg/mL (≈ 0.147 µM) |
